Reference: patent publication US20060009403A1, “Dna demethylase antisense and chemotherapy combination” (Centre National De La Recherche Scientifique (CNRS), priority 2002, published 2006)

Tested on: H1299 tumor grafts (human non-small cell lung tumors)
Experiment: Growth of H1299 tumor grafts in nude mice after intratumor electrotransfer of antisense plasmid and/or intramuscular bleomycin (Experiments 1 and 2)
Format: in vivo
Details: for Number of tumors cured (tumors no longer measurable): cured/total
Description: Two series of experiments were carried out in nude mice weighing 18 to 20 g. The mice were implanted on one side with H1299 tumor grafts (human non-small cell lung tumors) of approximately 20 mm^3. The tumors developed, to reach a volume of 20 to 150 mm^3. The mice were sorted as a function of the size of the tumors and were divided up into homogeneous batches reaching tumor volumes of 50 to 80 mm^3 (n=10 to 13). The mice were anesthetized with a mixture of ketamine and xylazine.
A series of tumors was subjected to no treatment.
Five electrotransfers of 50 μg of plasmid in 80 μl of 150 mM NaCl were carried out in the tumors on the days indicated by the arrows. The plasmid solution was injected longitudinally at the periphery of the tumor using a Hamilton syringe. The lateral faces of the tumors were coated with conducting gel and the tumors were placed between 2 flat stainless steel electrodes 0.4 to 0.7 cm apart. Twenty to 30 seconds after the injection, the plasmids were electrotransferred using a commercial (square) electrical pulse generator (Jouan Electropulser PS 15). Each tumor was subjected to 500 V/cm delivered in 8 pulses lasting 20 msec at a frequency of 1 Hertz.
Twenty-five μg of bleomycin/animal in 50 μl of 150 mM NaCl were injected bilaterally into the tibialis cranialis muscle and, 30 minutes later, each tumor was subjected to 1 electrotransfer as explained above.
(§1) Twenty-five μg of bleomycin/animal in 50 μl of 150 mM NaCl were injected bilaterally into the tibialis cranialis muscle and, 30 minutes later, 50 μg of antisense plasmid in 80 μl of 150 mM NaCl were injected and electrotransferred. Four other electrotransfers of 50 μg of antisense plasmid in 80 μl of 150 mM NaCl were subsequently carried out in the tumors on the days indicated by the arrows.
The tumor volumes were measured individually for each tumor using an electronic slide gauge with a digital display, according to the formula (length×width×thickness)/2.
The median of the tumor volumes was reported in the form of a graph, as a function of time.
Five electrotransfers of 80 μl of 150 mM NaCl were carried out in the tumors on the days indicated by the arrows.
as §1, with “Fifty” for “Twenty-five μg of bleomycin/animal in 50”, “later, an electrotransfer of” for “later,”, “was carried out.” for “were injected and electrotransferred.”
Twenty-five μg of bleomycin/animal in 50 μl of 150 mM NaCl were injected bilaterally into the tibialis cranialis muscle and, 30 minutes later, each tumor was injected with 80 μl of 150 mM NaCl and subjected to an electrotransfer. Four other electrotransfers of 80 μl of 150 mM NaCl were subsequently carried out in the tumors on the days indicated by the arrows.
as §1, with “50-μl” for “50 μl”, “in” for “into”, “later, an electrotransfer of” for “later,”, “was carried out.” for “were injected and electrotransferred.”

bleomycin
Delay in growth, treatment versus untreated (Experiment 1): 30 days
D1000, number of days required to reach a tumor volume of 1000 mm^3 (Experiment 1 (Table 3)): D44 days
Day 1000 mm^3 (median), number of days to reach 1000 mm^3 of tumor volume (Experiment 1, H1299 tumors, 25 μg bleomycin i.m. and/or 5 electrotransfers of 50 μg plasmid): 44.40 days
Number of tumors cured (tumors no longer measurable) (Experiment 1): 1/13
Delay in growth, treatment versus electro/NaCl (Experiment 2): 17 days
D1000, number of days required to reach a tumor volume of 1000 mm^3 (Experiment 2 (Table 3)): D38 days
D 1000 mm^3 (median), number of days to reach 1000 mm^3 of tumor volume (Experiment 2, H1299 tumors, 25 μg bleomycin i.m. and/or 5 electrotransfers of 50 μg plasmid): 38.00 days
Number of tumors cured (tumors no longer measurable) (Experiment 2): 1/11
Tumor (complete) cure rate (H1299 tumors, summary over Experiments 1 and 2): 10%
